# From patent publication US9669003B2, “Use of flavone and flavanone derivatives in preparation of sedative and hypnotic drugs” (priority 2012, dated 2017)
# Marks after values point to notes of the source that are not given here.
# Legend:
# Assay type in all cases: in vivo
# Kunming mice [1] = assay: Influence on autonomic activity of normal mice (ZIL-2 mice autonomic activity meter, counts within 10 min); settings: intragastric, x ± s, n = 10; for Times of activities in 1 h after drug administration/10 min: 1 h after administration; for Times of activities in 2 h after drug administration/10 min: 2 h after administration; for Times of activities in 24 h after drug administration/10 min: 24 h after administration
# Summary of the method: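 Activity counts during a 10-min window were taken at 1, 2 and 24 h after dosing in groups of 10 mixed-sex Kunming mice. Compounds were given in 0.5% CMC-Na at 25, 50 or 100 mg/kg. Statistics used Levene's homogeneity test, ANOVA and Dunnett's multiple comparisons.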
# Kunming mice [2] = assay: Influence on hypnosis effect with pentobarbital sodium doses at the threshold (50 mg/kg i.p.); settings: pentobarbital sodium 50 mg/kg i.p. 60 min later, x ± s, n = 10
# Summary of the method: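 Pentobarbital sodium (0.3%, 50 mg/kg i.p.) injected 60 min after a single intragastric dose (25, 50, 100 mg/kg, 0.5% CMC-Na vehicle) in Kunming mice, 10 per group, sexes balanced. Onset and length of sleep (righting reflex lost over 1 min) analysed by ANOVA; sleeping incidence by χ2 test.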
# Kunming mice [3] = assay: Influence on hypnosis effect with pentobarbital sodium doses below the threshold (25 mg/kg i.p.); settings: pentobarbital sodium 25 mg/kg i.p. 60 min later, sleep observed in 30 min, n = 10
# Summary of the method: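 Percentage of mice sleeping within 30 min after subthreshold pentobarbital sodium (25 mg/kg i.p.), defined by loss of righting reflex over 1 min, analysed by χ2. Compound in 0.5% CMC-Na given intragastrically at 25/50/100 mg/kg 60 min before; groups of 10 Kunming mice, both sexes.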
# [4] = 25 mg/kg intragastric single dose
# [5] = 50 mg/kg intragastric single dose
# [6] = 100 mg/kg intragastric single dose
# [7] = test drug 25 mg/kg intragastric single dose
# [8] = test drug 50 mg/kg intragastric single dose
# [9] = test drug 100 mg/kg intragastric single dose
compound,measurement,setting,value
"COc1cc2c(c(OC)c1OC)OC(c1cc(OC)c(OC)c(OC)c1OC)CC2=O (stereo not drawn) [Example 67, 6,7,8,3′,4′,5′,6′-hepta methoxyl-flavanone]",Times of activities in 1 h after drug administration/10 min,Kunming mice [1]; 25 mg/kg,287.7 ± 45.4 /10 min
same,Times of activities in 2 h after drug administration/10 min,Kunming mice [1]; 25 mg/kg,312.5 ± 54.8 /10 min
same,Times of activities in 24 h after drug administration/10 min,Kunming mice [1]; 25 mg/kg,307.4 ± 77.0 /10 min
same,Times of activities in 1 h after drug administration/10 min,Kunming mice [1]; 50 mg/kg,247.2 ± 44.5 /10 min
same,Times of activities in 2 h after drug administration/10 min,Kunming mice [1]; 50 mg/kg,251.3 ± 38.8 /10 min
same,Times of activities in 24 h after drug administration/10 min,Kunming mice [1]; 50 mg/kg,314.6 ± 94.9 /10 min
same,Times of activities in 1 h after drug administration/10 min,Kunming mice [1]; 100 mg/kg,223.4 ± 46.5 /10 min
same,Times of activities in 2 h after drug administration/10 min,Kunming mice [1]; 100 mg/kg,243.7 ± 40.6 /10 min
same,Times of activities in 24 h after drug administration/10 min,Kunming mice [1]; 100 mg/kg,301.9 ± 88.6 /10 min
same,duration of sleep,Kunming mice [2]; [4],80.69 ± 20.87 min
same,time to sleep,Kunming mice [2]; [4],4.34 ± 1.26 min
same,duration of sleep,Kunming mice [2]; [5],48.12 ± 22.48 min
same,time to sleep,Kunming mice [2]; [5],4.09 ± 1.45 min
same,duration of sleep,Kunming mice [2]; [6],54.43 ± 19.81 min
same,time to sleep,Kunming mice [2]; [6],3.87 ± 2.98 min
same,Number of sleeping animals,Kunming mice [3]; [7],5
same,rate of sleeping (%),Kunming mice [3]; [7],50** %
same,Number of sleeping animals,Kunming mice [3]; [8],6
same,rate of sleeping (%),Kunming mice [3]; [8],60** %
same,Number of sleeping animals,Kunming mice [3]; [9],7
same,rate of sleeping (%),Kunming mice [3]; [9],70** %
C=Cc1cc(-c2cc(=O)c3c(C4CCSC4)cc(C(N)=O)cc3o2)cc(N)c1CC (stereo not drawn) [Example 17],Times of activities in 1 h after drug administration/10 min,Kunming mice [1]; 25 mg/kg,284.9 ± 49.3 /10 min
same,Times of activities in 2 h after drug administration/10 min,Kunming mice [1]; 25 mg/kg,280.1 ± 42.7 /10 min
same,Times of activities in 24 h after drug administration/10 min,Kunming mice [1]; 25 mg/kg,306.2 ± 81.3 /10 min
same,Times of activities in 1 h after drug administration/10 min,Kunming mice [1]; 50 mg/kg,176.6 ± 50.2 /10 min
same,Times of activities in 2 h after drug administration/10 min,Kunming mice [1]; 50 mg/kg,189.3 ± 57.3 /10 min
same,Times of activities in 24 h after drug administration/10 min,Kunming mice [1]; 50 mg/kg,291.5 ± 70.0 /10 min
same,Times of activities in 1 h after drug administration/10 min,Kunming mice [1]; 100 mg/kg,153.1 ± 38.4 /10 min
same,Times of activities in 2 h after drug administration/10 min,Kunming mice [1]; 100 mg/kg,135.9 ± 48.7 /10 min
same,Times of activities in 24 h after drug administration/10 min,Kunming mice [1]; 100 mg/kg,302.1 ± 89.0 /10 min
same,duration of sleep,Kunming mice [2]; [4],32.56 ± 25.95 min
same,time to sleep,Kunming mice [2]; [4],5.55 ± 1.45 min
same,duration of sleep,Kunming mice [2]; [5],45.62 ± 21.08 min
same,time to sleep,Kunming mice [2]; [5],3.97 ± 1.26 min
same,duration of sleep,Kunming mice [2]; [6],57.86 ± 25.22 min
same,time to sleep,Kunming mice [2]; [6],3.96 ± 1.14 min
same,Number of sleeping animals,Kunming mice [3]; [7],3
same,rate of sleeping (%),Kunming mice [3]; [7],30%
same,Number of sleeping animals,Kunming mice [3]; [8],6
same,rate of sleeping (%),Kunming mice [3]; [8],60** %
same,Number of sleeping animals,Kunming mice [3]; [9],7
same,rate of sleeping (%),Kunming mice [3]; [9],70** %
"COc1ccc(C2CC(=O)c3c(OC)c(OC)c(OC)c(OC)c3O2)cc1 (stereo not drawn) [Example 47, 5,6,7,8,4′-penta methoxyl-flavanone]",Times of activities in 1 h after drug administration/10 min,Kunming mice [1]; 25 mg/kg,328.6 ± 49.7 /10 min
same,Times of activities in 2 h after drug administration/10 min,Kunming mice [1]; 25 mg/kg,312.7 ± 56.1 /10 min
same,Times of activities in 24 h after drug administration/10 min,Kunming mice [1]; 25 mg/kg,315.1 ± 85.4 /10 min
same,Times of activities in 1 h after drug administration/10 min,Kunming mice [1]; 50 mg/kg,280.7 ± 61.3 /10 min
same,Times of activities in 2 h after drug administration/10 min,Kunming mice [1]; 50 mg/kg,278.6 ± 47.5 /10 min
same,Times of activities in 24 h after drug administration/10 min,Kunming mice [1]; 50 mg/kg,310.5 ± 75.3 /10 min
same,Times of activities in 1 h after drug administration/10 min,Kunming mice [1]; 100 mg/kg,237.2 ± 35.6 /10 min
same,Times of activities in 2 h after drug administration/10 min,Kunming mice [1]; 100 mg/kg,250.3 ± 46.2 /10 min
same,Times of activities in 24 h after drug administration/10 min,Kunming mice [1]; 100 mg/kg,307.1 ± 82.3 /10 min
same,duration of sleep,Kunming mice [2]; [4],39.86 ± 16.75 min
same,time to sleep,Kunming mice [2]; [4],4.45 ± 1.43 min
same,duration of sleep,Kunming mice [2]; [5],43.26 ± 20.65 min
same,time to sleep,Kunming mice [2]; [5],3.72 ± 1.65 min
same,duration of sleep,Kunming mice [2]; [6],59.78 ± 19.65 min
same,time to sleep,Kunming mice [2]; [6],3.18 ± 1.54 min
same,Number of sleeping animals,Kunming mice [3]; [7],4
same,rate of sleeping (%),Kunming mice [3]; [7],40* %
same,Number of sleeping animals,Kunming mice [3]; [8],7
same,rate of sleeping (%),Kunming mice [3]; [8],70** %
same,Number of sleeping animals,Kunming mice [3]; [9],8
same,rate of sleeping (%),Kunming mice [3]; [9],80*** %
